According to US10214546B2, “Btk inhibitors” (MERCK SHARP & DOHME CORP., priority 2014, dated 2019):
Where two headings read alike, the source gives them in different places.

Legend:
[1] = biological target: BTK enzyme (recombinant full-length BTK, hBTK) (Homo sapiens (Human), UniProt Q06187); assay: BTK enzymatic activity LANCE TR-FRET assay; assay type: biochemical; conditions: 50 pM hBTK, 25 μM ATP, 2 μM biotin-A5-peptide; compound range 1 μM to 0.017 nM; read-out: BTK binding IC50
[2] = tested on: adenosine uptake into HeLa cells; assay: [3H]Adenosine uptake assay in HeLa cells; assay type: cell-based; conditions: [3H]adenosine accumulation in HeLa cells, compound range 10 μM to 0.032 nM, read-out: ADU inhibition IC50
Summary of the method: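 HeLa cells in HBSS + 5% FBS were preincubated 30 min at ambient temperature with compound (ten-point 1:3 series, 10 µM–[…] final), then given [3H]adenosine (added as a 500 nM solution) for 60 min. Cell-associated label was read by scintillating-plate proximity counting; IC50 from 4-parameter fit of cps versus log concentration.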

BTK enzyme (recombinant full-length BTK, hBTK), sequence (Q06187 whole entry): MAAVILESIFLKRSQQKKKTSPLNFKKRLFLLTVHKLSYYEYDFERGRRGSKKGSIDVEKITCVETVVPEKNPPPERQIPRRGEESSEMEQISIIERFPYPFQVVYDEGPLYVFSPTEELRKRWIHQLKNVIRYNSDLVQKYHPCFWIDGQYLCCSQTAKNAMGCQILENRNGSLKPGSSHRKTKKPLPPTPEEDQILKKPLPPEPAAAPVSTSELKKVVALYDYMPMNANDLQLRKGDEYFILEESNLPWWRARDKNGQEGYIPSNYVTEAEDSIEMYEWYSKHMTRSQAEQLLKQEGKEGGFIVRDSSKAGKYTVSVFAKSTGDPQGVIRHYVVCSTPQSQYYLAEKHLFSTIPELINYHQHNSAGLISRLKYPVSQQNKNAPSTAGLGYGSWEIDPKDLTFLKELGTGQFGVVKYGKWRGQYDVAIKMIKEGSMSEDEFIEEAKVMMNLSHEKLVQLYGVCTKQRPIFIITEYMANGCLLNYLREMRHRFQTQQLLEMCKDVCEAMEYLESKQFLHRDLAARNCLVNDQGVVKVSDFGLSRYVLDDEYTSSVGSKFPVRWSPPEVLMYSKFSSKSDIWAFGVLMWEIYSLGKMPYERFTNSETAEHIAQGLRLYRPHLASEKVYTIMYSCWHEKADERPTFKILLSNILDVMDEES

IC50 [1] [µM]	IC50 [2] [µM]	IC50 ([2]; Homo sapiens, HeLa) [µM]	Molecule
0.0538	0.23		CC(O)(c1cccc(C(F)F)c1)c1ccc(-c2nc([C@@H]3CC[C@@H]4N(C3)C(=O)CC4(C)C)n3ccnc(N)c23)c(F)c1 (stereo partly drawn) [Example 200, (6R,8aS)-6-[8-amino-1-(4-{1-[3-(difluoromethyl)phenyl]-1-hydroxyethyl}-2-fluorophenyl)imidazo[1,5-a]pyrazin-3-yl]-1,1-dimethylhexahydroindolizin-3(2H)-one]
0.0422	0.418		CC1(C)C[C@@H]2CC[C@@H](c3nc(-c4ccc(C(C)(O)c5cccc(C(F)F)c5)cc4F)c4c(N)nccn34)CN2C1=O (stereo partly drawn) [Example 201, (6R,8aS)-6-[8-amino-1-(4-{1-[3-(difluoromethyl)phenyl]-1-hydroxyethyl}-2-fluorophenyl)imidazo[1,5-a]pyrazin-3-yl]-2,2-dimethylhexahydroindolizin-3(2H)-one]
0.00016	1.92		CC(O)(c1cccc(C(F)F)c1)c1ccc(-c2nc([C@@H]3CC[C@@H]4N(C3)C(=O)CC4(C)C)n3ccnc(N)c23)c(F)c1 (stereo partly drawn) [Example 202, (6R,8aS)-6-(8-amino-1-(4-{1-[3-(difluoromethyl)phenyl]-1-hydroxyethyl}-2-fluorophenyl)imidazo[1,5-a]pyrazin-3-yl]-1,1-dimethylhexahydroindolizin-3(2H)-one]
0.00043	2.27		CC1(C)C[C@@H]2CC[C@@H](c3nc(-c4ccc(C(C)(O)c5cccc(C(F)F)c5)cc4F)c4c(N)nccn34)CN2C1=O (stereo partly drawn) [Example 203, (6R,8aS)-6-[8-amino-1-(4-{1-[3-(difluoromethyl)phenyl]-1-hydroxyethyl}-2-fluorophenyl)imidazo[1,5-a]pyrazin-3-yl]-2,2-dimethylhexahydroindolizin-3(2H)-one]
0.0022		5.87	CCOc1cc([C@@](C)(O)c2cccc(C(F)(F)F)c2)ccc1-c1nc([C@@H]2CC[C@H]3CCC(=O)N3C2)n2c(F)cnc(N)c12 [Example 204, (6R,8aS)-6-[8-amino-1-(2-ethoxy-4-{(1S)-1-hydroxy-1-[3-(trifluoromethyl)phenyl]ethyl}phenyl)-5-fluoroimidazo[1,5-a]pyrazin-3-yl]hexahydroindolizin-3(2H)-one]
0.002	3.5		COc1cc(C(C)(O)c2cccc(C(F)(F)F)c2)ccc1-c1nc([C@@H]2CC[C@@H]3N(C2)C(=O)CC3(C)C)n2ccnc(N)c12 (stereo partly drawn) [Example 205, (6R,8aS)-6-[8-amino-1-(4-{1-hydroxy-1-[3-(trifluoromethyl)phenyl]ethyl}-2-methoxyphenyl)imidazo [1,5-a]pyrazin-3-yl]-1,1-dimethylhexahydroindolizin-3(2H)-one]
0.0038		5.46	COc1cc([C@@](C)(O)c2cccc(C(F)(F)F)c2)ccc1-c1nc([C@@H]2CC[C@H]3CC(C)(C)C(=O)N3C2)n2ccnc(N)c12 [Example 206, (6R,8aS)-6-[8-amino-1-(4-{(1S)-1-hydroxy-1-[3-(trifluoromethyl)phenyl]ethyl}-2-methoxyphenyl)imidazo [1,5-a]pyrazin-3-yl]-2,2-dimethylhexahydroindolizin-3(2H)-one]
0.459	0.933		CC(O)(c1cccc(C(F)F)c1)c1ccc(-c2nc([C@@H]3CC[C@H]4CCC(=O)N4C3)n3c(F)cnc(N)c23)c(F)c1 (stereo partly drawn) [Example 207, (6R,8aS)-6-[8-amino-1-(4-{1-[3-(difluoromethyl)phenyl]-1-hydroxyethyl}-2-fluorophenyl)-5-fluoroimidazo[1,5-a]pyrazin-3-yl]hexahydroindolizin-3(2H)-one]
0.0016	5.41		CC(O)(c1cccc(C(F)F)c1)c1ccc(-c2nc([C@@H]3CC[C@H]4CCC(=O)N4C3)n3c(F)cnc(N)c23)c(F)c1 (stereo partly drawn) [Example 208, (6R,8aS)-6-(8-amino-1-(4-{1-[3-(difluoromethyl)phenyl]-1-hydroxyethyl}-2-fluorophenyl)-5-fluoroimidazo[1,5-a]pyrazin-3-yl]hexahydroindolizin-3(2H)-one]
0.026	1.12		COc1cc(C(C)(O)c2cccc(C(F)(F)F)c2)ccc1-c1nc([C@@H]2CC[C@@H]3N(C2)C(=O)CC3(C)C)n2ccnc(N)c12 (stereo partly drawn) [Example 209, (6R,8aS)-6-[8-amino-1-(4-{1-hydroxy-1-[3-(trifluoromethyl)phenyl]ethyl}-2-methoxyphenyl)imidazo [1,5-a]pyrazin-3-yl]-1,1-dimethylhexahydroindolizin-3(2H)-one]
0.067	2.7		COc1cc(C(O)(c2cccc(C(F)F)c2)C(F)(F)F)ccc1-c1nc([C@@H]2CC[C@H]3CCC(=O)N3C2)n2ccnc(N)c12 (stereo partly drawn) [Example 210, (6R,8aS)-6-[8-amino-1-(4-{1-[3-(difluoromethyl)phenyl]-2,2,2-trifluoro-1-hydroxyethyl}-2-methoxyphenyl)imidazo [1,5-a]pyrazin-3-yl]hexahydroindolizin-3(2H)-one]
0.0006	7.03		COc1cc(C(O)(c2cccc(C(F)F)c2)C(F)(F)F)ccc1-c1nc([C@@H]2CC[C@H]3CCC(=O)N3C2)n2ccnc(N)c12 (stereo partly drawn) [Example 211, (6R,8aS)-6-[8-amino-1-(4-{1-[3-(difluoromethyl)phenyl]-2,2,2-trifluoro-1-hydroxyethyl}-2-methoxyphenyl)imidazo [1,5-a]pyrazin-3-yl]hexahydroindolizin-3(2H)-one]
0.329		3.52	CCOc1cc([C@@](C)(O)c2cccc(C(F)(F)F)c2)cc(F)c1-c1nc([C@@H]2CC[C@H]3CCC(=O)N3C2)n2ccnc(N)c12 [Example 212, (6R,8aS)-6-[8-amino-1-(2-ethoxy-6-fluoro-4-{(1S)-1-hydroxy-1-[3-(trifluoromethyl)phenyl]ethyl}phenyl)imidazo [1,5-a]pyrazin-3-yl]hexahydroindolizin-3(2H)-one]
0.00063		6	CCOc1cc([C@](C)(O)c2cccc(C(F)(F)F)c2)cc(F)c1-c1nc([C@@H]2CC[C@H]3CCC(=O)N3C2)n2ccnc(N)c12 [Example 213, (6R,8aS)-6-[8-amino-1-(2-ethoxy-6-fluoro-4-{(1R)-1-hydroxy-1-[3-(trifluoromethyl)phenyl]ethyl}phenyl)imidazo [1,5-a]pyrazin-3-yl]hexahydroindolizin-3(2H)-one]
0.0041		3.11	CCOc1cc(C(O)(c2cccc(C(F)(F)F)c2)C(F)(F)F)ccc1-c1nc([C@@H]2CC[C@H]3CCC(=O)N3C2)n2ccnc(N)c12 (stereo partly drawn) [Example 214, (6R,8aS)-6-[8-amino-1-(2-ethoxy-4-{2,2,2-trifluoro-1-hydroxy-1-[3-(trifluoromethyl)phenyl]ethyl}phenyl)imidazo [1,5-a]pyrazin-3-yl]hexahydroindolizin-3(2H)-one]

Molecule	IC50 [1] [µM]	IC50 [2] [µM]	IC50 ([2]; Homo sapiens, HeLa) [µM]
(6R.8aS)-6-[8-amino-1- (4-{(1R)-1-[3- (difluoromethyl)phenyl]-1- hydroxyethyl}phenyl)- 5-fluoroimidazo[1,5- a]pyrazin-3-yl]-2,2- dimethylhexahydroindolizin- 3(2H)-one [Example 178]	0.0013	4.61	
